Experimental data: US20260365671A1, “HETEROCYCLIC COMPOUND” (Takeda Pharmaceutical Company Limited, priority 2022, published 2026)
pIC50: −log10 of the molar value.

Tests used:
NLRP3 inflammasome = molecular target: T1, NLRP3 inflammasome (Homo sapiens, UniProt Q96P20); assay: IL-1β TR-FRET assay (THP-1 cells differentiated to macrophages with IFN-γ, LPS primed, ATP activated; HTRF); assay type: cell-based; settings: THP-1 macrophages, 50 ng/mL LPS priming, compound 30 min, 20 mM ATP 2 hours
T1 construct: IL-1beta HTRF
How it was run: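 IL-1β release was read by HTRF after 16–24 h antibody incubation at room temperature, using supernatants from THP-1-derived macrophages (IFN-γ 25 ng/mL, LPS 50 ng/mL priming) given compound 30 min and then 20 mM ATP for 2 h. % inhibition versus concentration was fitted logistically for IC50.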

NF-κB pathway = assay: TNF-α assay (THP-1 cells differentiated to macrophages with IFN-γ, NF-κB pathway activated with LPS; ELISA); assay type: cell-based, Human; settings: compound 30 min, 50 ng/mL LPS 3 hours
How it was run: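 TNF-α release measured by ELISA after 3 h stimulation with 50 ng/mL LPS, following 30 min compound pretreatment (37 °C, no FBS). Cells were THP-1 macrophages primed with IFN-γ 25 ng/mL for 24 h. IC50 derived by logistic curve fit.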

[1] = Homo sapiens, THP-1, THP-1 macrophages

T1 sequence (Q96P20 whole entry): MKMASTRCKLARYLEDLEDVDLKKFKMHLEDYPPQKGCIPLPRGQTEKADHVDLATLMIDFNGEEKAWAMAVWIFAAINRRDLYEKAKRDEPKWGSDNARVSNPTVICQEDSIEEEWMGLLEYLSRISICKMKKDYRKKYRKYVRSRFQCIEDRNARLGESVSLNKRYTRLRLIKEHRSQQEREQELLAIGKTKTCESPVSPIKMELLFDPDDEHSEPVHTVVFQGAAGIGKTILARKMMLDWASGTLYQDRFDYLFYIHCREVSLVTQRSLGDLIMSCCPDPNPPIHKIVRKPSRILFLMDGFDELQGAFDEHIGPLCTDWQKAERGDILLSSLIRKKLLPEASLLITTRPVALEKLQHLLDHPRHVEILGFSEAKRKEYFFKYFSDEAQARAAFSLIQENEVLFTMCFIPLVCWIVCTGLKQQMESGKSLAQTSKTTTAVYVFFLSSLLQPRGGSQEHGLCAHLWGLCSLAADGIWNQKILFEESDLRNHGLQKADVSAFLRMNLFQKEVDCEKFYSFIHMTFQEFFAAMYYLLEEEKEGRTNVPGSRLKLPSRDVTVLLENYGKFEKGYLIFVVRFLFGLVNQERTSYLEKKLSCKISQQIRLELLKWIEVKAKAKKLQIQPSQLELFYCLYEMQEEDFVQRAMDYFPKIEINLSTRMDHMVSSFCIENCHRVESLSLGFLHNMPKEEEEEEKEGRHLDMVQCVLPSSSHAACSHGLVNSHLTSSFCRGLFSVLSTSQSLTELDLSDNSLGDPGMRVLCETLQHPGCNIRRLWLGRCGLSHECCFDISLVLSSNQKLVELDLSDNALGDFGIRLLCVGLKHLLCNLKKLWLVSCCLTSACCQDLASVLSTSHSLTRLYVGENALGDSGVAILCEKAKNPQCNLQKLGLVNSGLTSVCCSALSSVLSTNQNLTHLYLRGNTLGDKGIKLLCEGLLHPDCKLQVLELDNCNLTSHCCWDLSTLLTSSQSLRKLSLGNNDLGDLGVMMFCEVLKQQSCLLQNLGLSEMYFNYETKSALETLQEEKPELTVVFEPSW

Structure (SMILES) | pIC50 (NLRP3 inflammasome) | pIC50 (NF-κB pathway; [1]) | pIC50 (NF-κB pathway; THP-1 macrophages)
Cc1cc(C)c(-n2cc3sc(N[C@H]4CN(C(=O)C5(C#N)CC5)C[C@@H]4F)nc3n2)c(O)c1 (racemic) [Example 125, racemic mixture of 1-[(3R,4R)-3-fluoro-4-{[2-(2-hydroxy-4,6-dimethylphenyl)-2H-pyrazolo[3,4-d][1,3]thiazol-5-yl]amino}pyrrolidine-1-carbonyl]cyclopropane-1-carbonitrile and 1-[(3S,4S)-3-fluoro-4-{[2-(2-hydroxy-4,6-dimethylphenyl)-2H-pyrazolo[3,4-d][1,3]thiazol-5-yl]amino}pyrrolidine-1-carbonyl]cyclopropane-1-carbonitrile] | 6.34 | < 4.52 | –
Cc1cc(C)c(-n2cc3sc(NC[C@@H](C)O)nc3n2)c(O)c1 [Example 34, 2-(5-{[(2R)-2-hydroxypropyl]amino}-2H-pyrazolo [3,4-d][1,3]thiazol-2-yl)-3,5-dimethylphenol] | 6.82 | < 5.00 | –
Cc1cc(C)c(-n2cc3sc(N[C@H]4COC[C@H]4F)nc3n2)c(O)c1 (racemic) [Example 122, racemic mixture of 2-(5-{[(3R,4R)-4-fluorooxolan-3-yl]amino}-2H-pyrazolo[3,4-d][1,3]thiazol-2-yl)-3,5-dimethylphenol and 2-(5-{[(3S,4S)-4-fluorooxolan-3-yl]amino}-2H-pyrazolo[3,4-d][1,3]thiazol-2-yl)-3,5-dimethylphenol] | 6.24 | < 4.52 | –
Cc1cc(O)c(-n2cc3sc(NC[C@@H](C)O)nc3n2)c(C2CC2(F)F)c1 (stereo partly drawn) [Example 141, 3-(2,2-difluorocyclopropyl)-2-(5-{[(2R)-2-hydroxypropyl]amino}-2H-pyrazolo[3,4-d][1,3]thiazol-2-yl)-5-methylphenol] | 7.23 | < 4.52 | –
Cc1cc(C)c(-n2cc3sc(NC4CCN(C(=O)C5(F)CC5)C4)nc3n2)c(O)c1 (stereo not drawn) [Example 98, (1-fluorocyclopropyl)(3-{[2-(2-hydroxy-4,6-dimethylphenyl)-2H-pyrazolo[3,4-d][1,3]thiazol-5-yl]amino}pyrrolidin-1-yl)methanone] | 6.34 | < 4.52 | –
CN1C[C@H](F)C[C@@H](Nc2nc3nn(-c4c(O)cc(F)cc4Cl)cc3s2)C1 [Example 17, 3-chloro-5-fluoro-2-(5-{[(3R,5R)-5-fluoro-1-methylpiperidin-3-yl]amino}-2H-pyrazolo[3,4-d][1,3]thi-azol-2-yl)phenol] | 6.96 | < 4.52 | –
Cc1cc(C)c(-n2cc3sc(N[C@H]4C[C@](C)(O)C4)nc3n2)c(O)c1 [Example 32, 2-{5-[(trans-3-hydroxy-3-methylcyclobutyl)amino]-2H-pyrazolo[3,4-d][1,3]thiazol-2-yl}-3,5-dimethylphenol] | 6.17 | < 5.00 | –
COC(=O)N1CCC(Nc2nc3nn(-c4c(C)cc(C)cc4O)cc3s2)C1 (stereo not drawn) [Example 91, methyl 3-{[2-(2-hydroxy-4,6-dimethylphenyl)-2H-pyrazolo[3,4-d][1,3]thiazol-5-yl]amino}pyrrolidine-1-carboxylate] | 6.18 | < 5.00 | –
Cc1cc(C)c(-n2cc3sc(NC4CCN(C)CC4)nc3n2)c(O)c1 [Example 81, 3,5-dimethyl-2-{5-[(1-methylpiperidin-4-yl)amino]-2H-pyrazolo[3,4-d][1,3]thiazol-2-yl}phenol] | 5.51 | < 4.52 | –
Cc1cc(C)c(-n2cc3sc(N[C@H]4CCN(C(=O)OC5CC5)C4)nc3n2)c(O)c1 [Example 154, cyclopropyl (3S)-3-{[2-(2-hydroxy-4,6-dimethylphenyl)-2H-pyrazolo[3,4-d][1,3]thiazol-5-yl]amino}pyrrolidine-1-carboxylate] | 5.72 | < 4.52 | –
Cc1cc(C)c(-n2cc3sc(N[C@H]4CN(C)CC4(F)F)nc3n2)c(O)c1 [Example 160, 2-(5-{[(3S)-4,4-difluoro-1-methylpyrrolidin-3-yl]amino}-2H-pyrazolo[3,4-d][1,3]thiazol-2-yl)-3,5-dimethylphenol] | 5.89 | < 4.52 | –
Cc1cc(C)c(-n2cc3sc(N[C@H]4CN(C)C[C@H]4F)nc3n2)c(O)c1 (racemic) [Example 22, racemic mixture of 2-(5-{[(3R,4S)-4-fluoro-1-methylpyrrolidin-3-yl]amino}-2H-1-pyrazolo[3,4-d][1,3]thiazol-2-yl)-3,5-dimethyl-phenol and 2-(5-{[(3S,4R)-4-fluoro-methylpyrrolidin-3-yl]amino}-2H-pyrazolo[3,4-d][1,3]thiazol-2-yl)-3,5-dimethylphenol] | 5.96 | < 4.52 | –
Cc1cc(C)c(-n2cc3sc(NCC(O)C(F)(F)F)nc3n2)c(O)c1 (stereo not drawn) [Example 163, 3,5-dimethyl-2-{5-[(3,3,3-trifluoro-2-hydroxypropyl)amino]-2H-pyrazolo[3,4-d][1,3]thiazol-2-yl}phenol] | 6.17 | < 4.52 | –
CNC(=O)N1C[C@H](Nc2nc3nn(-c4c(C)cc(C)cc4O)cc3s2)[C@@H](F)C1 (racemic) [Example 119, racemic mixture of (3R,4R)-3-fluoro-4-{[2-(2-hydroxy-4,6-dimethylphenyl)-2H-pyrazolo[3,4-d][1,3]thiazol-5-yl]amino}-N-methylpyrrolidine-1-carboxamide and (3S,4S)-3-fluoro-4-{[2-(2-hydroxy-4,6-dimethylphenyl)-2H-pyrazolo[3,4-d][1,3]thiazol-5-yl]amino}-N-methylpyrrolidine-1-carboxamide] | 6.43 | < 4.52 | –
Cc1cc(C)c(-n2cc3sc(N[C@@H]4C[C@@H](F)CN(C5CCOC5)C4)nc3n2)c(O)c1 (single isomer, unassigned) [Example 74, 2-[5-({(3R,5R)-5-fluoro-1-[(S)-oxolan-3-yl]piperidin-3-yl}amino)-2H-pyrazolo[3,4-d][1,3]thiazol-2-yl]-3,5-dimethylphenol or 2-[5-({(3R,5R)-5-fluoro-1-[(R)-oxolan-3-yl]piperidin-3-yl}amino)-2H-pyrazolo[3,4-d][1,3]thiazol-2-yl]-3,5-dimethylphenol (tR2)] | 6.25 | – | < 4.52
Cc1cc(C)c(-n2cc3sc(N[C@@H]4CCOC4)nc3n2)c(O)c1 [Example 157, 3,5-dimethyl-2-(5-{[(3R)-oxolan-3-yl]amino}-2H-pyrazolo[3,4-d][1,3]thiazol-2-yl)phenol] | 6.48 | < 4.52 | –
CN1C[C@H](F)C[C@@H](Nc2nc3nn(-c4c(O)cc(Cl)cc4C(F)F)cc3s2)C1 [Example 75, 5-chloro-3-(difluoromethyl)-2-(5-{[(3R,5R)-5-fluoro-1-methylpiperidin-3-yl]amino}-2H-pyrazolo [3,4-d][1,3]thiazol-2-yl)phenol] | 7.80 | < 4.52 | –
Cc1cc(C)c(-n2cc3sc(N[C@@H]4CC[C@@H](O)C4)nc3n2)c(O)c1 [Example 45, 2-(5-{[(1R,3R)-3-hydroxycyclopentyl]amino}-2H-pyrazolo[3,4-d][1,3]thiazol-2-yl)-3,5-dimethylphenol or 2-(5-{[(1S,3S)-3-hydroxycyclopentyl]amino}-2H-pyrazolo[3,4-d][1,3]thiazol-2-yl)-3,5-dimethylphenol (tR2)] | 6.48 | – | < 5.00
Cc1cc(O)c(-n2cc3sc(N[C@@H]4C[C@@H](F)CN(C)C4)nc3n2)c(C2CC2(F)F)c1 (single isomer, unassigned) [Example 127, 3-[(R)-2,2-difluorocyclopropyl]-2-(5-{[(3R,5R)-5-fluoro-1-methylpiperidin-3-yl]amino}-2H-pyrazolo[3,4-d][1,3]thiazol-2-yl)-5-methylphenol or 3-[(S)-2,2-difluorocyclopropyl]-2-(5-{[(3R,5R)-5-fluoro-1-methylpiperidin-3-yl]amino}-2H-pyrazolo[3,4-d][1,3]thiazol-2-yl)-5-methylphenol (tR1)] | 7.82 | – | < 4.52
Cc1cc(C)c(-n2cc3sc(NCC(O)c4ccccn4)nc3n2)c(O)c1 (stereo not drawn) [Example 164, 2-(5-{[2-hydroxy-2-(pyridin-2-yl)ethyl]amino}-2H-pyrazolo[3,4-d][1,3]thiazol-2-yl)-3,5-dimethylphenol] | 6.00 | < 4.52 | –
Cc1cc(O)c(-n2cc3sc(N[C@@H]4C[C@@H](F)CN(C)C4)nc3n2)c(C(C)C)c1 [Example 94, 2-(5-{[(3R,5R)-5-fluoro-1-methylpiperidin-3-yl]amino}-2H-pyrazolo[3,4-d][1,3]thiazol-2-yl)-5-methyl-3-(propan-2-yl)phenol] | 7.51 | < 4.52 | –
COC(=O)N1CC[C@@H](Nc2nc3nn(-c4c(C)cc(C)cc4O)cc3s2)C1 [Example 155, methyl (3R)-3-{[2-(2-hydroxy-4,6-dimethylphenyl)-2H-pyrazolo[3,4-d][1,3]thiazol-5-yl]amino}pyrrolidine-1-carboxylate] | 6.47 | < 4.52 | –
Cc1cc(C)c(-n2cc3sc(N[C@H]4COC[C@@H]4F)nc3n2)c(O)c1 (single isomer, unassigned) [Example 143, 2-(5-{[(3R,4S)-4-fluorooxolan-3-yl]amino}-2H-pyrazolo[3,4-d][1,3]thiazol-2-yl)-3,5-dimethylphenol or 2-(5-{[(3S,4R)-4-fluorooxolan-3-yl]amino}-2H-pyrazolo[3,4-d][1,3]thiazol-2-yl)-3,5-dimethylphenol (tR2)] | 6.37 | – | < 4.52
Cc1cc(Cl)cc(O)c1-n1cc2sc(N[C@@H]3CCCN(C)C3)nc2n1 [Example 2, 5-chloro-3-methyl-2-(5-{[(3R)-1-methylpiperidin-3-yl]amino}-2H-pyrazolo[3,4-d][1,3]thiazol-2-yl)phenol] | 8.80 | < 4.52 | –
